Assay results published in PMC5884652, “New antimicrobial peptide kills drug-resistant pathogens without detectable resistance” (Oncotarget, 2018).
In brackets after ≈: the same amount, converted by molar mass.

What was measured:
Assay in all cases: microbe, parasite or virus in culture
E. coli CCARM1238 = format: cell-based, Escherichia coli; conditions: Escherichia coli, CCARM1238; pH (I or II) not given; 10 mM sodium phosphate buffer, 10% LB; 37° C, 24 h; mean of 3 experiments
Description: (§1) The method for peptide synthesis has been described in detail previously. E. coli ATCC 25922 (LB media), P. aeruginosa ATCC 15692 (NB+0.5% NaCl media), Listeria monocytogenes ATCC 3710 (LB media), Staphylococcus epidermidis ATCC 12228 (LB media), and S. aureus ATCC 29213 (TSB media) were obtained from the American Type Culture Collection (Manassas, VA, USA). Bacillus subtilis KCTC 1998 (LB media), Salmonella typhimurium KCTC 1926 (NB media), and Proteus vulgaris KCTC 2433 (NB media) were obtained from the Korean Collection for Type Cultures (Jeollabuk-do, Korea). E. coli CCARM 1238 was received from the Culture Collection of Antibiotic Resistant Microbes at Seoul Women’s University, Korea. Drug-resistant P. aeruginosa 3543, 3904, 3547, and 4007 and S. aureus 3126, 0027, 5157, 1635, 4761, 5159, 3359, 2122, 1630, 1870, 3511, 5156, and 3518 were resistant strains isolated from patients with otitis media in a Chonnam National University’s hospital.
(§2) The antibacterial activities of AMPs (melittin, clavaspirin, and its analogs) and conventional antibiotic drugs (erythromycin, gentamicin, ampicillin, and piperacidin) were determined using microdilution assays. Bacterial cells were cultured at 37° C in appropriate culture media at pH 5.5 or pH 7.4 until collection during the mid-log phase and suspended in 10 mM sodium phosphate buffer (pH 5.5 or pH 7.4) supplemented with 10% culture medium. Thereafter, 2× serial dilutions of each peptide (0.25–128 μM) or antibiotic (0.25–256 μM) were added to sterile 96-well plates, and aliquots of cell suspension (5 × 10^5 colony forming units (cfu)/mL) were seeded into each well. The samples were then incubated at 37° C for 24 h. At the end of the incubation, the minimum inhibitory concentrations (MICs) of the peptides were determined using a VERSA Max microplate reader (Molecular Devices Co., Sunnyvale, CA, USA) at a wavelength of 600 nm. […] MIC values were calculated as the mean of 3 independent experiments conducted in triplicate.

P. aeruginosa 3543 = format: cell-based, Pseudomonas aeruginosa; conditions: Pseudomonas aeruginosa, 3543; pH (I or II) not given; 10 mM sodium phosphate buffer, 10% LB; 37° C, 24 h; mean of 3 experiments
Description: as §1, §2

P. aeruginosa 3547 = format: cell-based, Pseudomonas aeruginosa; conditions: Pseudomonas aeruginosa, 3547; pH (I or II) not given; 10 mM sodium phosphate buffer, 10% LB; 37° C, 24 h; mean of 3 experiments
Description: as §1, §2

P. aeruginosa 3904 = format: cell-based, Pseudomonas aeruginosa; conditions: Pseudomonas aeruginosa, 3904; pH (I or II) not given; 10 mM sodium phosphate buffer, 10% LB; 37° C, 24 h; mean of 3 experiments
Description: as §1, §2

P. aeruginosa 4007 = format: cell-based, Pseudomonas aeruginosa; conditions: Pseudomonas aeruginosa, 4007; pH (I or II) not given; 10 mM sodium phosphate buffer, 10% LB; 37° C, 24 h; mean of 3 experiments
Description: as §1, §2

S. aureus 0027 = format: cell-based, Staphylococcus aureus; conditions: Staphylococcus aureus, 0027; pH (I or II) not given; 10 mM sodium phosphate buffer, 10% LB; 37° C, 24 h; mean of 3 experiments
Description: as §1, §2

S. aureus 1630 = format: cell-based, Staphylococcus aureus; conditions: Staphylococcus aureus, 1630; pH (I or II) not given; 10 mM sodium phosphate buffer, 10% LB; 37° C, 24 h; mean of 3 experiments
Description: as §1, §2

S. aureus 1635 = format: cell-based, Staphylococcus aureus; conditions: Staphylococcus aureus, 1635; pH (I or II) not given; 10 mM sodium phosphate buffer, 10% LB; 37° C, 24 h; mean of 3 experiments
Description: as §1, §2

S. aureus 1870 = format: cell-based, Staphylococcus aureus; conditions: Staphylococcus aureus, 1870; pH (I or II) not given; 10 mM sodium phosphate buffer, 10% LB; 37° C, 24 h; mean of 3 experiments
Description: as §1, §2

S. aureus 2122 = format: cell-based, Staphylococcus aureus; conditions: Staphylococcus aureus, 2122; pH (I or II) not given; 10 mM sodium phosphate buffer, 10% LB; 37° C, 24 h; mean of 3 experiments
Description: as §1, §2

S. aureus 3126 = format: cell-based, Staphylococcus aureus; conditions: Staphylococcus aureus, 3126; pH (I or II) not given; 10 mM sodium phosphate buffer, 10% LB; 37° C, 24 h; mean of 3 experiments
Description: as §1, §2

S. aureus 3359 = format: cell-based, Staphylococcus aureus; conditions: Staphylococcus aureus, 3359; pH (I or II) not given; 10 mM sodium phosphate buffer, 10% LB; 37° C, 24 h; mean of 3 experiments
Description: as §1, §2

S. aureus 3511 = format: cell-based, Staphylococcus aureus; conditions: Staphylococcus aureus, 3511; pH (I or II) not given; 10 mM sodium phosphate buffer, 10% LB; 37° C, 24 h; mean of 3 experiments
Description: as §1, §2

S. aureus 3518 = format: cell-based, Staphylococcus aureus; conditions: Staphylococcus aureus, 3518; pH (I or II) not given; 10 mM sodium phosphate buffer, 10% LB; 37° C, 24 h; mean of 3 experiments
Description: as §1, §2

S. aureus 4761 = format: cell-based, Staphylococcus aureus; conditions: Staphylococcus aureus, 4761; pH (I or II) not given; 10 mM sodium phosphate buffer, 10% LB; 37° C, 24 h; mean of 3 experiments
Description: as §1, §2

S. aureus 5156 = format: cell-based, Staphylococcus aureus; conditions: Staphylococcus aureus, 5156; pH (I or II) not given; 10 mM sodium phosphate buffer, 10% LB; 37° C, 24 h; mean of 3 experiments
Description: as §1, §2

S. aureus 5157 = format: cell-based, Staphylococcus aureus; conditions: Staphylococcus aureus, 5157; pH (I or II) not given; 10 mM sodium phosphate buffer, 10% LB; 37° C, 24 h; mean of 3 experiments
Description: as §1, §2

S. aureus 5159 = format: cell-based, Staphylococcus aureus; conditions: Staphylococcus aureus, 5159; pH (I or II) not given; 10 mM sodium phosphate buffer, 10% LB; 37° C, 24 h; mean of 3 experiments
Description: as §1, §2

Row | MIC (E. coli CCARM1238) | MIC (P. aeruginosa 3543) | MIC (P. aeruginosa 3547) | MIC (P. aeruginosa 3904) | MIC (P. aeruginosa 4007) | Structure (SMILES) | MIC (S. aureus 0027) | MIC (S. aureus 1630) | MIC (S. aureus 1635) | MIC (S. aureus 1870) | MIC (S. aureus 2122) | MIC (S. aureus 3126) | MIC (S. aureus 3359) | MIC (S. aureus 3511) | MIC (S. aureus 3518) | MIC (S. aureus 4761) | MIC (S. aureus 5156) | MIC (S. aureus 5157) | MIC (S. aureus 5159)
1 | > 800 µM | > 800 µM | 400 µM (≈ 140 µg/mL) | > 800 µM | > 800 µM | CC1(C)S[C@@H]2[C@H](NC(=O)[C@H](N)c3ccccc3)C(=O)N2[C@H]1C(=O)O [ampicillin] |  |  |  |  |  |  |  |  |  |  |  |  | 
2 |  |  |  |  |  | CC[C@H]1OC(=O)[C@H](C)[C@@H](O[C@H]2C[C@@](C)(OC)[C@@H](O)[C@H](C)O2)[C@H](C)[C@@H](O[C@@H]2O[C@H](C)C[C@H](N(C)C)[C@H]2O)[C@](C)(O)C[C@@H](C)C(=O)[C@H](C)[C@@H](O)[C@]1(C)O [erythromycin] | > 256 µM | > 256 µM | > 256 µM | > 256 µM | > 256 µM | 128 µM (≈ 93.9 µg/mL) | > 256 µM | > 256 µM | > 256 µM | > 256 µM | > 256 µM | 16 µM (≈ 11.7 µg/mL) | 16 µM (≈ 11.7 µg/mL)
3 |  |  |  |  |  | CNC(C)C1CCC(N)C(OC2C(N)CC(N)C(OC3OCC(C)(O)C(NC)C3O)C2O)O1 (stereo not shown) [gentamicin] | 64 µM (≈ 30.6 µg/mL) | 64 µM (≈ 30.6 µg/mL) | > 256 µM | 16 µM (≈ 7.64 µg/mL) | 128 µM (≈ 61.1 µg/mL) | 32 µM (≈ 15.3 µg/mL) | 64 µM (≈ 30.6 µg/mL) | > 256 µM | > 256 µM | 32 µM (≈ 15.3 µg/mL) | > 256 µM | 16 µM (≈ 7.64 µg/mL) | 16 µM (≈ 7.64 µg/mL)
